{
  "source": "paper PMC11671014",
  "about": "(PLOS Pathogens, 2024)",
  "key": {"Solubility": {"experiment": "Solubility", "assay_type": "physicochemical"}, "[1]": {"experiment": "Blood exposure in the P. falciparum infected SCID mouse model", "assay_type": "in vivo, NODscidIL2Rγ^null mice engrafted with human RBCs", "conditions": "for Cmax / Tmax / AUC(0-t): female, mouse, whole blood, po", "experimental": "The model using P. falciparum Pf3D7^0087/N9 in NODscidIL2Rγ^null mice engrafted with human RBCs was adapted from a previously described procedure. Female NODscidIL2Rγ^null mice were purchased from Charles River (Germany). Briefly, two engrafted mice/dosing group (females, 20–22 g) were infected intravenously with 2 x 10^7 P. falciparum (Pf3D7^0087/N9) on day 0. The antimalarial efficacy was assessed following administration (p.o.) of 100 or 200 mg/kg of compound or of 4 daily doses of 50 mg/kg, initiated on day 3 post-infection. The effect on blood parasitemia was measured by microscopic analysis of Giemsa-stained blood smears (on days 3, 4, 5, 6 and 7 post-infection). Mice were euthanized on day 7. Animal were monitored for symptoms of acute toxicity, including decreased activity, sunken flanks, ataxia and blood in faeces.\nOn day 3, blood samples (20 μL) were obtained at time points up to 24 h after the first administration. Protein was precipitated with acetonitrile and the remaining compound was assessed by LC-MS/MS in the selected reaction monitoring mode using HESI ionization in positive ion mode."}, "[2]": {"test_system": "stage V NF54 strain male and female gametocytes", "set-up": "method as in ref [1] Xie et al., Science 2022", "conditions": "48 h, ref [1] Xie et al., Science 2022, cited from earlier work"}, "[3]": {"conditions": "1 x 100 mg/kg p.o., mice M1, M2"}, "[4]": {"conditions": "1 x 200 mg/kg p.o., mice M3, M4"}, "[5]": {"conditions": "4 days x 50 mg/kg p.o., after first dose, blood"}, "[6]": {"conditions": "4 days x 50 mg/kg p.o., mice M1, M2"}},
  "note": "Where “and” joins values, the source holds several entries; their conditions need not be identical. Identical values can stand only once. Like-named read-outs stand apart in the source and are kept apart here.",
  "data": [
    {"smiles": "CC(C)c1nn([C@@H]2O[C@H](COS(N)(=O)=O)[C@@H](O)[C@H]2O)c2ncnc(N)c12", "note": "[ML471, ((2R,3S,4R,5R)-5-(4-amino-3-isopropyl-1H-pyrazolo[3,4-d]pyrimidin-1-yl)-3,4-dihydroxytetrahydrofuran-2-yl)methyl sulfamate]", "values": [
      {"measurement": "solubility", "setting": "Solubility", "result": "> 100", "unit": "µM"},
      {"measurement": "AUC0-120h/dose (mean)", "setting": "[1]; 1 x 100 mg/kg p.o., blood", "result": "2,500 (h*ng/mL)/(mg/kg)"},
      {"measurement": "Cmax/dose (mean)", "setting": "[1]; 1 x 100 mg/kg p.o., blood", "result": "33.5 (ng/mL)/(mg/kg)"},
      {"measurement": "AUC0-120h (individual mice)", "setting": "[1]; [3]", "result": "260,000 h*ng/mL"},
      {"measurement": "AUC0-120h/dose (individual mice)", "setting": "[1]; [3]", "result": "2,390 (h*ng/mL)/(mg/kg) and 2,600 (h*ng/mL)/(mg/kg)"},
      {"measurement": "Cmax (individual mice)", "setting": "[1]; [3]", "result": "3,600 ng/mL"},
      {"measurement": "Cmax/dose (individual mice)", "setting": "[1]; [3]", "result": "31 (ng/mL)/(mg/kg) and 36 (ng/mL)/(mg/kg)"},
      {"measurement": "AUC0-120h/dose (mean)", "setting": "[1]; 1 x 200 mg/kg p.o., blood", "result": "1,070 (h*ng/mL)/(mg/kg)"},
      {"measurement": "Cmax/dose (mean)", "setting": "[1]; 1 x 200 mg/kg p.o., blood", "result": "18.8 (ng/mL)/(mg/kg)"},
      {"measurement": "AUC0-120h (individual mice)", "setting": "[1]; [4]", "result": "259,000 h*ng/mL"},
      {"measurement": "AUC0-120h/dose (individual mice)", "setting": "[1]; [4]", "result": "855 (h*ng/mL)/(mg/kg) and 1,290 (h*ng/mL)/(mg/kg)"},
      {"measurement": "Cmax (individual mice)", "setting": "[1]; [4]", "result": "4,180 ng/mL"},
      {"measurement": "Cmax/dose (individual mice)", "setting": "[1]; [4]", "result": "16.7 (ng/mL)/(mg/kg) and 20.9 (ng/mL)/(mg/kg)"},
      {"measurement": "AUC0-24h/dose (mean)", "setting": "[1]; [5]", "result": "422 (h*ng/mL)/(mg/kg)"},
      {"measurement": "Cmax/dose (mean)", "setting": "[1]; [5]", "result": "19.3 (ng/mL)/(mg/kg)"},
      {"measurement": "AUC0-24h (individual mice)", "setting": "[1]; [6]", "result": "22,572 h*ng/mL"},
      {"measurement": "AUC0-24h/dose (individual mice)", "setting": "[1]; [6]", "result": "451 (h*ng/mL)/(mg/kg) and 392 (h*ng/mL)/(mg/kg)"},
      {"measurement": "Cmax (individual mice)", "setting": "[1]; [6]", "result": "1,040 ng/mL"},
      {"measurement": "Cmax/dose (individual mice)", "setting": "[1]; [6]", "result": "17.8 (ng/mL)/(mg/kg) and 20.8 (ng/mL)/(mg/kg)"},
      {"measurement": "Tmax (individual mice)", "setting": "[1]; [6]", "result": 24, "unit": "h"},
      {"measurement": "Cmax", "setting": "[1]; NODscidIL2Rγ^null, 50 mg/kg, 4 days x 50 mg/kg p.o., after first dose, blood, read-out: Cmax (mean)", "result": 964, "unit": "ng/mL"},
      {"measurement": "Tmax", "setting": "[1]; NODscidIL2Rγ^null, 50 mg/kg, 4 days x 50 mg/kg p.o., after first dose, blood, read-out: Tmax (mean)", "result": 15, "unit": "h"},
      {"measurement": "AUC(0-t)", "setting": "[1]; NODscidIL2Rγ^null, 50 mg/kg, 4 days x 50 mg/kg p.o., mice M1, M2, read-out: AUC0-24h (individual mice)", "result": 19.6, "unit": "µg·h/mL"},
      {"measurement": "Cmax", "setting": "[1]; NODscidIL2Rγ^null, 50 mg/kg, 4 days x 50 mg/kg p.o., mice M1, M2, read-out: Cmax (individual mice)", "result": 888, "unit": "ng/mL"},
      {"measurement": "Cmax", "setting": "[1]; NODscidIL2Rγ^null, 100 mg/kg, 1 x 100 mg/kg p.o., blood, read-out: Cmax (mean)", "result": 3350, "unit": "ng/mL"},
      {"measurement": "Tmax", "setting": "[1]; NODscidIL2Rγ^null, 100 mg/kg, 1 x 100 mg/kg p.o., blood, read-out: Tmax (mean)", "result": 5, "unit": "h"},
      {"measurement": "AUC(0-t)", "setting": "[1]; NODscidIL2Rγ^null, 100 mg/kg, 1 x 100 mg/kg p.o., mice M1, M2, read-out: AUC0-120h (individual mice)", "result": 239, "unit": "µg·h/mL"},
      {"measurement": "Cmax", "setting": "[1]; NODscidIL2Rγ^null, 100 mg/kg, 1 x 100 mg/kg p.o., mice M1, M2, read-out: Cmax (individual mice)", "result": 3100, "unit": "ng/mL"},
      {"measurement": "Tmax", "setting": "[1]; NODscidIL2Rγ^null, 100 mg/kg, 1 x 100 mg/kg p.o., mice M1, M2, read-out: Tmax (individual mice)", "result": 4, "unit": "h"},
      {"measurement": "Cmax", "setting": "[1]; NODscidIL2Rγ^null, 200 mg/kg, 1 x 200 mg/kg p.o., blood, read-out: Cmax (mean)", "result": 3760, "unit": "ng/mL"},
      {"measurement": "Tmax", "setting": "[1]; NODscidIL2Rγ^null, 200 mg/kg, 1 x 200 mg/kg p.o., blood, read-out: Tmax (mean)", "result": 4, "unit": "h"},
      {"measurement": "AUC(0-t)", "setting": "[1]; NODscidIL2Rγ^null, 200 mg/kg, 1 x 200 mg/kg p.o., mice M3, M4, read-out: AUC0-120h (individual mice)", "result": 171, "unit": "µg·h/mL"},
      {"measurement": "Cmax", "setting": "[1]; NODscidIL2Rγ^null, 200 mg/kg, 1 x 200 mg/kg p.o., mice M3, M4, read-out: Cmax (individual mice)", "result": 3340, "unit": "ng/mL"},
      {"measurement": "Tmax", "setting": "[1]; NODscidIL2Rγ^null, 200 mg/kg, 1 x 200 mg/kg p.o., mice M3, M4, read-out: Tmax (individual mice)", "result": 4, "unit": "h"},
      {"measurement": "AUC(0-t)", "setting": "[1]; NODscidIL2Rγnull engrafted with human RBCs, 50 mg/kg, 4 x 50 mg/kg p.o., at 24 h after the first dose, read-out: AUC0-24h", "result": 54, "unit": "µM·h"},
      {"measurement": "AUC(0-t)", "setting": "[1]; NODscidIL2Rγnull engrafted with human RBCs, 50 mg/kg, 4 days x 50 mg/kg p.o., after first dose, blood, read-out: AUC0-24h (mean)", "result": 21.1, "unit": "µg·h/mL"},
      {"measurement": "AUC(0-t)", "setting": "[1]; NODscidIL2Rγnull engrafted with human RBCs, 100 mg/kg, 1 x 100 mg/kg p.o., blood, read-out: AUC0-120h (mean)", "result": 250, "unit": "µg·h/mL"},
      {"measurement": "AUC(0-t)", "setting": "[1]; NODscidIL2Rγnull engrafted with human RBCs, 100 mg/kg, single dose 100 mg/kg p.o., read-out: AUC0-120h", "result": 640, "unit": "µM·h"},
      {"measurement": "AUC(0-t)", "setting": "[1]; NODscidIL2Rγnull engrafted with human RBCs, 200 mg/kg, 1 x 200 mg/kg p.o., blood, read-out: AUC0-120h (mean)", "result": 215, "unit": "µg·h/mL"},
      {"measurement": "AUC(0-t)", "setting": "[1]; NODscidIL2Rγnull engrafted with human RBCs, 200 mg/kg, single dose 200 mg/kg p.o., read-out: AUC0-120h", "result": 550, "unit": "µM·h"}
    ]},
    {"smiles": "Nc1ncnc2c1c(OC(F)F)nn2[C@@H]1O[C@H](COS(N)(=O)=O)[C@@H](O)[C@H]1O", "note": "[ML901]", "values": [
      {"measurement": "IC50", "setting": "[2]; female, read-out: Dual gamete formation assay (female) IC50(48h)", "result": 4700, "unit": "nM"},
      {"measurement": "IC50", "setting": "[2]; male, read-out: Dual gamete formation assay (male) IC50(48h)", "result": "130 ± 10", "unit": "nM"}
    ]}
  ]
}
